# Results: patent US11214803B2, “Modulators of YAP1 expression” (Ionis Pharmaceuticals, Inc., priority 2019, dated 2022)
# Strand notation (5' to 3'): a small letter for the sugar, then the base; units joined by * are phosphorothioate-linked, units joined directly phosphodiester-linked; [ ] holds rarer units or linkages, { } end groups; capitals alone tell only the bases. e = 2'-O-(2-methoxyethyl) (MOE); k = constrained ethyl (cEt); [5mC] = 5-methylcytosine; d = 2'-deoxy (DNA); m = 2'-O-methyl
# Test system: Yap1 mRNA
# Test: Antisense inhibition of human Yap1 in SNU-449 cells by modified oligonucleotides, single dose (Example 5, RTS36584)
# Type: cell-based
# Method in brief: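 SNU-449 cells (10,000/well) took up 2,000 nM oligonucleotide by free uptake for about 48 h. Yap1 mRNA was measured by qRT-PCR with primer probe set RTS36584 and normalised to RIBOGREEN total RNA. Values are % of untreated control; asterisked oligos target the amplicon region.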
# [1] = Table 50, Yap1 mRNA remaining as percent of untreated control (UT), SNU-449 cells, single dose
# [2] = Table 45, Yap1 mRNA as percent of untreated control, SNU-449 cells, single dose
# [3] = Table 42 (separate experiment), SNU-449 cells, 10,000 cells per well, free uptake, 2,000 nM modified oligonucleotide, approximately 48 hours, RTS36584, normalized to RIBOGREEN, Yap1 mRNA relative to untreated control cells
# [4] = Table 44 experiment, SNU-449 cells, 10,000 cells per well, free uptake, 2,000 nM, approximately 48 hours, RTS36584, Yap1 mRNA normalized to RIBOGREEN, relative to untreated control cells
# [5] = Table 46, Yap1 mRNA as percent of untreated control, SNU-449 cells, single dose
# [6] = Table 40 (separate experiment), SNU-449 cells, 10,000 cells per well, free uptake, 2,000 nM oligonucleotide, approx. 48 hours, RTS36584, normalized to RIBOGREEN, Yap1 mRNA relative to untreated control
# [7] = Table 43 experiment, SNU-449 cells, 10,000 cells per well, free uptake, 2,000 nM, approximately 48 hours, RTS36584, Yap1 mRNA normalized to RIBOGREEN, relative to untreated control cells
# [8] = Table 48, Yap1 mRNA level relative to untreated control, modified oligonucleotides targeting SEQ ID NO.: 1 and 2
# [9] = Table 51, Yap1 mRNA remaining as percent of untreated control (UT), SNU-449 cells, single dose
# [10] = Table 39, SNU-449 cells, 10,000 cells per well, free uptake, 2,000 nM oligonucleotide, approx. 48 hours, RTS36584, normalized to RIBOGREEN, Yap1 mRNA relative to untreated control
# [11] = Yap1 mRNA, percent of untreated control, modified oligonucleotides targeting SEQ ID NO: 1 and 2, Table 47
substance,measurement,setting,value
1198610 (antisense kT*kG*kT*dA*dT*dG*dT*d[5mC]*dA*dG*dA*dA*kG*kA*kG*eT) [Compound 1198610],YAP1 (% UT),[1],TksGksTksAdsTdsGdsTds^mCdsAdsGds4 % UT
1198921 (kT*kT*dA*dA*dG*d[5mC]*dA*d[5mC]*dT*dT*dT*kT*dA*k[5mC]*dA*kT; antisense) [Compound 1198921],YAP1 (% UTC),[2],89 % UTC
1198224 (kA*k[5mC]*dT*dT*dT*dT*dA*d[5mC]*dA*dT*dT*eA*eG*eG*kA*kA) [Compound 1198224],YAP1 (% UTC),[3],74 % UTC
1198489 (antisense kT*kT*dG*dG*dA*dA*dG*dA*dT*d[5mC]*dT*eG*kA*eA*kA*e[5mC]) [Compound 1198489],YAP1 (% UTC),[4],50 % UTC
1198504 (kT*k[5mC]*dA*dG*dA*dT*dT*dT*dA*dG*dG*eA*kT*eG*k[5mC]*eA; antisense) [Compound 1198504],YAP1 (% UTC),[4],15 % UTC
1198809 (antisense kG*kG*dA*dA*dA*dT*dT*dG*dT*d[5mC]*dT*k[5mC]*eA*kT*eG*k[5mC]) [Compound 1198809],YAP1 (% UT),[5],27 % UT
1198229 (kT*kT*dA*dA*dG*d[5mC]*dA*d[5mC]*dT*dT*dT*eT*eA*e[5mC]*kA*kT) [Compound 1198229],YAP1 (% UTC),[3],80 % UTC
1198760 (kT*eT*kA*dG*dG*dA*dT*dG*d[5mC]*dA*dT*dG*eG*eT*kT*kT; antisense) [Compound 1198760],YAP1 (% UTC),[6],91 % UTC
1198198 (kT*kG*dT*d[5mC]*dT*d[5mC]*dA*dT*dG*d[5mC]*d[5mC]*eT*eT*eA*kT*kA; antisense) [Compound 1198198],YAP1 (% UTC),[3],29 % UTC
1198604 (antisense kT*kA*kA*dT*dA*dT*dT*dG*d[5mC]*dA*dA*dT*k[5mC]*kT*kG*eT) [Compound 1198604],YAP1 (% UT),[1],48 % UT
1198470 (antisense kT*kA*dT*dT*dA*dG*dA*dG*dT*dA*dT*eG*kT*eG*kG*e[5mC]) [Compound 1198470],YAP1 (% UTC),[7],17 % UTC
1009397 (kA*kA*k[5mC]*dA*d[5mC]*dT*dG*dA*dG*dG*dT*dA*dT*kA*kA*k[5mC]; antisense) [Compound 1009397],YAP1 (% UT),[8],44 % UT
1198235 (kT*kG*d[5mC]*dT*dT*dT*dG*dG*dA*dA*dG*eA*eT*e[5mC]*kT*kG) [Compound 1198235],YAP1 (% UTC),[3],49 % UTC
"1197272 (^{m}C_{ks}T_{ks}T_{ks}T_{ds}A_{ys}A_{ds}A_{ds}G_{ds}T_{ds}G_{ds}T_{ds}A_{ds}T_{ds}G_{ks}T_{ks}^{m}C_{k}; as printed in the source, key not given here) [Compound 1197272]",YAP1 (% UT),[9],32 % UT
1198627 (kT*kT*kA*dG*dA*d[5mC]*dT*dA*dA*dG*dT*dA*kA*kG*kG*eT; antisense) [Compound 1198627],YAP1 (% UT),[1],39 % UT
1198310 (kA*k[5mC]*kT*dT*dT*dT*dA*d[5mC]*dA*dT*dT*dA*kG*eG*kA*eA; antisense) [Compound 1198310],YAP1 (% UT),[8],28 % UT
1198973 (kG*kA*d[5mC]*dT*dA*dA*dG*dT*dA*dA*dG*kG*dT*kT*dT*k[5mC]; antisense) [Compound 1198973],YAP1 (% UTC),[2],53 % UTC
1198898 (kA*kT*dA*dT*dG*dG*dA*dA*dA*dT*dT*kG*dT*k[5mC]*dT*k[5mC]; antisense) [Compound 1198898],YAP1 (% UTC),[2],53 % UTC
1198941 (kT*kT*dA*dT*dA*dT*dG*dG*dT*dT*dT*kT*dG*kT*dG*kT; antisense) [Compound 1198941],YAP1 (% UTC),[2],35 % UTC
1198225 (k[5mC]*kA*d[5mC]*dT*dT*dT*dT*dA*d[5mC]*dA*dT*eT*eA*eG*kG*kA) [Compound 1198225],YAP1 (% UTC),[3],67 % UTC
1197286 (kA*kT*kA*dT*mU*dA*dG*dA*dG*dT*dA*dT*dG*kT*kG*kG) [Compound 1197286],YAP1 (% UT),[1],43 % UT
1198886 (kA*k[5mC]*dT*dA*dA*dG*dT*dA*dA*dG*dG*kT*eT*kT*e[5mC]*k[5mC]; antisense) [Compound 1198886],YAP1 (% UT),[5],45 % UT
1198413 (kT*dT*dT*dA*dG*dG*dA*dT*dG*d[5mC]*dA*kT*eG*kG*eT*kT) [Compound 1198413],YAP1 (% UTC),[10],29 % UTC
1198230 (kG*kG*dA*dA*dG*dA*dT*d[5mC]*dT*dG*dA*eA*eA*e[5mC]*kT*k[5mC]) [Compound 1198230],YAP1 (% UTC),[3],81 % UTC
1198842 (kG*kT*dG*d[5mC]*dT*dT*dT*dG*dG*dA*dA*kG*eA*kT*e[5mC]*kT; antisense) [Compound 1198842],YAP1 (% UT),[5],37 % UT
1198335 (kT*kT*kA*dT*dA*dT*dG*dG*dT*dT*dT*dT*kG*eT*kG*eT; antisense) [Compound 1198335],YAP1 (% UT),"Table 49, Yap1 mRNA level relative to untreated control, modified oligonucleotides targeting SEQ ID NO.: 1 and 2",26 % UT
1198751 (kT*eT*kG*dG*dA*dA*dG*dA*dT*d[5mC]*dT*dG*eA*eA*kA*k[5mC]; antisense) [Compound 1198751],YAP1 (% UTC),[6],76 % UTC
1198589 (antisense k[5mC]*kA*kG*dA*dT*dT*dT*dA*dG*dG*dA*dT*kG*k[5mC]*kA*eT) [Compound 1198589],YAP1 (% UT),[1],24 % UT
1198265 (kT*kT*dT*dA*dT*dG*dT*dA*dA*dT*dA*eT*eT*eG*k[5mC]*kA; antisense) [Compound 1198265],YAP1 (% UTC),[7],111 % UTC
1198793 (antisense k[5mC]*eT*kT*dT*dA*dA*dA*dG*dT*dG*dT*dA*eT*eG*kT*k[5mC]) [Compound 1198793],YAP1 (% UTC),"Table 41, SNU-449 cells, 10,000 cells per well, free uptake, 2,000 nM modified oligonucleotide, approximately 48 hours, RTS36584, normalized to RIBOGREEN, Yap1 mRNA relative to untreated control cells",34 % UTC
1197227 (antisense kT*kT*kA*dG*dA*d[5mC]*dT*dA*dA*dG*dT*dA*dA*kG*kG*kT) [Compound 1197227],YAP1 (% UT),[11],64 % UT
1095510 (antisense k[5mC]*kT*dG*dA*dG*dG*dT*dA*dT*dA*dA*k[5mC]*dT*kG*dG*kG) [Compound 1095510],YAP1 (% UTC),[2],35 % UTC
1074463 (kT*kA*kG*dA*dG*dT*dA*dT*dG*dT*dG*dG*d[5mC]*kA*kA*kT; antisense) [Compound 1074463],YAP1 (% UT),[11],20 % UT
1200801 (kT*k[5mC]*kT*dA*dT*mA*dT*dT*dA*dG*dA*dG*dT*kA*kT*kG; antisense) [Compound 1200801],YAP1 (% UT),[9],77 % UT
1200809 (k[5mC]*kA*k[5mC]*dT*dG*mA*dG*dG*dT*dA*dT*dA*dA*k[5mC]*kT*kG; antisense) [Compound 1200809],YAP1 (% UT),"Table 52, Yap1 mRNA, modified oligonucleotides targeting SEQ ID NO: 1 and 2",69 % UT
1198269 (kA*kA*dA*dG*dT*dG*dT*dA*dT*dG*dT*e[5mC]*eA*eG*kA*kA; antisense) [Compound 1198269],YAP1 (% UTC),[7],58 % UTC
1198535 (kA*kA*dG*dT*dA*dA*dG*dG*dT*dT*dT*e[5mC]*k[5mC]*e[5mC]*kA*eG; antisense) [Compound 1198535],YAP1 (% UTC),[4],35 % UTC
1198881 (kT*kA*dA*dG*dG*dT*dT*dT*d[5mC]*d[5mC]*d[5mC]*kA*eG*kA*eT*kT; antisense) [Compound 1198881],YAP1 (% UT),[5],36 % UT
1198449 (kA*dA*dG*dT*dA*dA*dG*dG*dT*dT*dT*k[5mC]*e[5mC]*k[5mC]*eA*kG; antisense) [Compound 1198449],YAP1 (% UTC),[10],37 % UTC
